Test results from publication PMC5539077, “Functional Characterization of a Missing Branch Component in Haematococcus pluvialis for Control of Algal Carotenoid Biosynthesis” (Frontiers in Plant Science, 2017).

Columns and labels:
HpLCYE = molecular target: T1, HpLCYE (Haematococcus lacustris, UniProt A0A0K1HSD1); test: E. coli complementation, UPLC product profile; assay type: cell-based; details: 30 then 25 °C
T1 construct: full ORF, 575 aa, codon-optimised, expressed from pACCRT-EIB plasmid in carotenoid-accumulating E. coli DH5alpha; no tag told
T1 sequence (A0A0K1HSD1 1-575): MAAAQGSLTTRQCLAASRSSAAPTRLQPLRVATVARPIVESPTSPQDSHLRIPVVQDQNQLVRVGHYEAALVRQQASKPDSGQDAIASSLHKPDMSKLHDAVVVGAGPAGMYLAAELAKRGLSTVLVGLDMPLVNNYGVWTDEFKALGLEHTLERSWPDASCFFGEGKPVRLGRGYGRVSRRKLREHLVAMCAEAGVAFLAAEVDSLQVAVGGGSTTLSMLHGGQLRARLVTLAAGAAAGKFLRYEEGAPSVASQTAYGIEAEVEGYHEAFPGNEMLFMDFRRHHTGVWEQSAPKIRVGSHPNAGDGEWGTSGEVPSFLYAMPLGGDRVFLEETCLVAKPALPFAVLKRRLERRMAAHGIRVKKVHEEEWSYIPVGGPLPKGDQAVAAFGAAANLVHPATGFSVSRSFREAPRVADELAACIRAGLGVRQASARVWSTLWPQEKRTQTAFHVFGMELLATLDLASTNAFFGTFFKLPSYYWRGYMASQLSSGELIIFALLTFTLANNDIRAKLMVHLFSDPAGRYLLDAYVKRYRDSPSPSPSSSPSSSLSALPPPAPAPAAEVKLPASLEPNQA

HpLCYB = molecular target: T2, HpLCYB (Haematococcus lacustris, UniProt A0A1S6KDX2); test: E. coli complementation, UPLC product profile; assay type: cell-based; details: lycopene-accumulating E. coli DH5alpha (pACCRT-EIB-B), 30 then 25 °C; product beta-carotene
T2 construct: full ORF, 568 aa, expressed from pACCRT-EIB plasmid in carotenoid-accumulating E. coli DH5alpha; no tag told
T2 sequence (A0A1S6KDX2 1-568): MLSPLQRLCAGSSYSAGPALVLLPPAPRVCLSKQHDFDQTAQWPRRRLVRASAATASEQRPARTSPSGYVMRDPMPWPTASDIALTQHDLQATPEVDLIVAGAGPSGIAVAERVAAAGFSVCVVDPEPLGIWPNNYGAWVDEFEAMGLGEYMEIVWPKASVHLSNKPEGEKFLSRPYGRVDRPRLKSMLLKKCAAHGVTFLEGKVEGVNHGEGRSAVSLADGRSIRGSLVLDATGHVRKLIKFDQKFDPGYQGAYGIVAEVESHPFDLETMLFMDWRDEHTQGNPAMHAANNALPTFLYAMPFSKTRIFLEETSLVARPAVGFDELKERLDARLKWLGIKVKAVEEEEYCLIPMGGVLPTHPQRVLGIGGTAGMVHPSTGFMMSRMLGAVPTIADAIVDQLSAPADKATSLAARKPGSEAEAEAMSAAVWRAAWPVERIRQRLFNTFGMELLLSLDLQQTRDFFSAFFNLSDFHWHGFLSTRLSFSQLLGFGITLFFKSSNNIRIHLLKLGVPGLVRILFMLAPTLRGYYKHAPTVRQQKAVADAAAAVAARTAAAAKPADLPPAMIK

HpLCYB (purified) = HpLCYB (purified) (Haematococcus lacustris, UniProt A0A1S6KDX2); test: in vitro cyclase assay, UPLC; assay type: biochemical; details: 50 mM gamma-carotene as printed, 0.1 M Tris-HCl pH 7.0, 10% glycerol, 5 mM DTT, 1 mM EDTA, 30 °C, 1 h; product beta-carotene

For `CC(C)=CCC/C(C)=C/C=C/C(C)=C/C=C/C(C)=C/C=C/C=C(C)/C=C/C=C(C)/C=C/C=C(\C)CCC=C(C)C` [lycopene], the “E. coli complementation, UPLC product profile” value (shortened to “E. coli complementation”) (HpLCYE; lycopene-accumulating E. coli DH5alpha (pACCRT-EIB-E), product delta-carotene) was “HpLCYE cyclized only one end of lycopene to synthesize δ-carotene” and the “E. coli complementation” value (HpLCYB) was “HpLCYB could cyclize both ends of lycopene to form β-carotene”.

In the case of `CC(C)=CCC/C(C)=C/C=C/C(C)=C/C=C/C(C)=C/C=C/C=C(C)/C=C/C=C(\C)CC/C=C(\C)CCC=C(C)C` [neurosporene], the “E. coli complementation” value (HpLCYE; neurosporene-accumulating E. coli DH5alpha (pACCRT-EIBneurE), product alpha-zeacarotene) is reported as “neurosporene produced by pACCRT-EIBneur was probably transformed into α-, and β-zeacarotene, respectively”.

For `CC(C)=CCC/C(C)=C/C=C/C(C)=C/C=C/C(C)=C/C=C/C=C(C)/C=C/C=C(C)/C=C/C1=C(C)CCCC1(C)C` [γ-carotene], the “in vitro cyclase assay, UPLC” value (HpLCYB (purified)) was “HpLCYB further cyclized γ-carotene to form β-carotene”.
